Experimental data as given in ChEMBL document CHEMBL1130110 (J Med Chem, 1997).

Experiments:
Glucagon receptor [1] = molecular target: T1, Glucagon receptor (Rattus norvegicus, UniProt P30082); assay: Effective concentration was determined in cAMP accumulation assay using isolated hepatocytes in the presence rolipram.; type: functional, cell-based; conditions: hepatocyte
Glucagon receptor [2] = molecular target: T1, Glucagon receptor; assay: pA2 value against Glucagon Receptor; conditions: read-out: pA2 (converted)
Glucagon receptor [3] = molecular target: T1, Glucagon receptor; assay: Binding affinity towards Glucagon receptor in rat liver plasma membranes by displacement of 125 I-labelled glucagon; type: cell membranes

T1 sequence (P30082 whole entry): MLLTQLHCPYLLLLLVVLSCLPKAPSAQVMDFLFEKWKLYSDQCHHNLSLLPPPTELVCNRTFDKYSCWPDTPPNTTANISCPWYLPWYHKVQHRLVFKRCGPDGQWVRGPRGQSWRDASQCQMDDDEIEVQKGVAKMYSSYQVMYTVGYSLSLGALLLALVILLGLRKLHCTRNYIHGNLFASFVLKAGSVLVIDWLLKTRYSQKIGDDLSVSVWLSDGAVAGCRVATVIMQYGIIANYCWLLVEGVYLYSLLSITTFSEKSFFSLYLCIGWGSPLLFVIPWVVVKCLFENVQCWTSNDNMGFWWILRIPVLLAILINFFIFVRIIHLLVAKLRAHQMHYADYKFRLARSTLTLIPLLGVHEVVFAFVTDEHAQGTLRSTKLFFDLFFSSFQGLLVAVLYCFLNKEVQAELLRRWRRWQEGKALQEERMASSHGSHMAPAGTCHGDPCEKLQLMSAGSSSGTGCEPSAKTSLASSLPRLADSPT

| EC50 (Glucagon receptor [1]) | Kb (Glucagon receptor [2]) | IC50 (Glucagon receptor [3]) | Compound |
| --- | --- | --- | --- |
| Not Active |  |  | CSCC[C@H](NC(=O)[C@H](CC(C)C)NC(=O)[C@H](Cc1c[nH]c2ccccc12)NC(=O)[C@H](CCC(N)=O)NC(=O)[C@@H](NC(=O)[C@H](Cc1ccccc1)NC(=O)[C@H](CC(=O)O)NC(=O)[C@H](CCC(N)=O)NC(=O)[C@H](C)NC(=O)[C@H](CCCN=C(N)N)NC(=O)[C@H](CCCN=C(N)N)NC(=O)[C@H](CO)NC(=O)[C@H](CC(=O)O)NC(=O)[C@H](CC(C)C)NC(=O)[C@H](Cc1ccc(O)cc1)NC(=O)[C@H](CCCCN)NC(=O)[C@H](CO)NC(=O)[C@H](Cc1ccc(O)cc1)NC(=O)[C@H](CCC(=O)O)NC(=O)[C@H](CO)NC(=O)[C@@H](NC(=O)[C@@H](NC(=O)CNC(=O)[C@H](CCC(N)=O)NC(=O)[C@@H](N)CO)[C@@H](C)O)[C@@H](C)O)C(C)C)C(=O)N[C@@H](CC(N)=O)C(=O)N[C@H](C(N)=O)[C@@H](C)O |
|  | 0.891 µM | 0.052 µM | CSCC[C@H](NC(=O)[C@H](CC(C)C)NC(=O)[C@H](Cc1c[nH]c2ccccc12)NC(=O)[C@H](CCC(N)=O)NC(=O)[C@@H](NC(=O)[C@H](Cc1ccccc1)NC(=O)[C@H](CC(=O)O)NC(=O)[C@H](CCC(N)=O)NC(=O)[C@H](C)NC(=O)[C@H](CCCN=C(N)N)NC(=O)[C@H](CCCN=C(N)N)NC(=O)[C@H](CO)NC(=O)[C@H](CC(=O)O)NC(=O)[C@H](CC(C)C)NC(=O)[C@H](Cc1ccc(O)cc1)NC(=O)[C@H](CCCCN)NC(=O)[C@H](CO)NC(=O)[C@H](Cc1ccc(O)cc1)NC(=O)[C@H](CCC(=O)O)NC(=O)[C@H](CO)NC(=O)[C@@H](NC(=O)[C@H](Cc1ccccc1)NC(=O)[C@@H](NC(=O)[C@H](CCC(N)=O)NC(=O)[C@@H](N)CO)[C@@H](C)O)[C@@H](C)O)C(C)C)C(=O)N[C@@H](CC(N)=O)C(=O)N[C@H](C(N)=O)[C@@H](C)O |
|  | 0.794 µM | 1 µM | CSCC[C@H](NC(=O)[C@H](CC(C)C)NC(=O)[C@H](Cc1c[nH]c2ccccc12)NC(=O)[C@H](CCC(N)=O)NC(=O)[C@@H](NC(=O)[C@H](Cc1ccccc1)NC(=O)[C@H](CC(=O)O)NC(=O)[C@H](CCC(N)=O)NC(=O)[C@H](C)NC(=O)[C@H](CCCNC(=N)N)NC(=O)[C@H](CCCNC(=N)N)NC(=O)[C@H](CO)NC(=O)[C@H](CC(=O)O)NC(=O)[C@H](CC(C)C)NC(=O)[C@H](Cc1ccc(O)cc1)NC(=O)[C@H](CCCCN)NC(=O)[C@H](CO)NC(=O)[C@H](Cc1ccc(O)cc1)NC(=O)[C@H](CCC(=O)O)NC(=O)[C@H](CO)NC(=O)[C@@H](NC(=O)[C@@H](NC(=O)CNC(=O)[C@H](CCC(N)=O)NC(=O)[C@@H](N)CO)[C@@H](C)O)[C@@H](C)O)C(C)C)C(=O)N[C@@H](CC(N)=O)C(=O)N[C@H](C(=O)O)[C@@H](C)O (stereo in doubt; 12) |
|  | 0.631 µM | 2 µM | CSCC[C@H](NC(=O)[C@H](CC(C)C)NC(=O)[C@H](Cc1c[nH]c2ccccc12)NC(=O)[C@H](CCC(N)=O)NC(=O)[C@@H](NC(=O)[C@H](Cc1ccccc1)NC(=O)[C@H](CC(=O)O)NC(=O)[C@H](CCC(N)=O)NC(=O)[C@H](C)NC(=O)[C@H](CCCNC(=N)N)NC(=O)[C@H](CCCNC(=N)N)NC(=O)[C@H](CO)NC(=O)[C@H](CC(=O)O)NC(=O)[C@H](CC(C)C)NC(=O)[C@H](Cc1ccc(O)cc1)NC(=O)[C@H](CCCCN)NC(=O)[C@H](CO)NC(=O)[C@H](Cc1ccc(O)cc1)NC(=O)[C@H](CCC(=O)O)NC(=O)[C@H](CO)NC(=O)[C@@H](NC(=O)[C@@H](NC(=O)CNC(=O)[C@H](CCC(N)=O)NC(=O)[C@@H](N)CO)[C@@H](C)O)[C@@H](C)O)C(C)C)C(=O)N[C@@H](CC(N)=O)C(=O)N[C@H](C(=O)O)[C@@H](C)O (stereo in doubt; 13) |
